# Results from publication PMC3146558 (Cellular and molecular neurobiology, 2011).
# Where a name gives a salt, the structure may show the parent alone. Read-outs that look alike come from different tables or passages of the source.
# Experiments:
# [1] = test system: morphine induced cAMP overshoot; test: Inhibition of morphine-induced cAMP overshoot, qHTS of LOPAC library; format: cell-based
# HEK-MOR cells = test: Assay performance in 1536-well plate format; format: cell-based; details: mean ± SD from 288 wells
SMILES,"IC50 ([1]; 18 h, read-out: Potency)",other results
CCCCCCCCCCCCCCCCCC(=O)NCC(COP(=O)([O-])OCC[N+](C)(C)C)OCC (racemic) [rac-2-Ethoxy-3-octadecanamido-1-propylphosphocholine],18400 nM,–
CC1(C(=O)O)C2CCC(O2)C1(C)C(=O)O (centres unmarked) [Cantharidic Acid],14600 nM,–
C[C@@]12C(=O)OC(=O)[C@]1(C)[C@H]1CC[C@@H]2O1 [Cantharidin],13000 nM,–
C=CCN1CC[C@]23CCCC[C@H]2[C@H]1Cc1ccc(O)cc13 [Levallorphan tartrate],330 nM,IC50 ([1]; read-out: IC50): 320 nM
"CN1CC[C@]23c4c5ccc(O)c4O[C@H]2[C@@H](O)C=C[C@H]3[C@H]1C5 [Morphine, morphine sulfate pentahydrate]",–,"ratio (665nm/620nm), morphine treatment (HEK-MOR cells; NKH 477 10 nM): 1.63 ± 0.13; ratio (665nm/620nm), morphine treatment (HEK-MOR cells; NKH 477 25 nM): 1.08 ± 0.05; ratio (665nm/620nm), morphine treatment (HEK-MOR cells; NKH 477 50 nM): 0.88 ± 0.04"
C=CCN1CC[C@]23c4c5ccc(O)c4O[C@H]2/C(=N/NC(=O)c2ccccc2)CC[C@@]3(O)[C@H]1C5 [Naloxone benzoylhydrazone],410 nM,–
O=C1CC[C@@]2(O)[C@H]3Cc4ccc(O)c5c4[C@@]2(CCN3CC2CC2)[C@H]1O5 [Naltrexone hydrochloride],120 nM,IC50 ([1]; read-out: IC50): 110 nM
Oc1ccc2c3c1O[C@H]1c4oc5ccccc5c4C[C@@]4(O)[C@@H](C2)N(CC2CC2)CC[C@]314 [Naltriben methanesulfonate],2310 nM,–
Oc1ccc2c3c1O[C@H]1c4[nH]c5ccccc5c4C[C@@]4(O)[C@@H](C2)N(CC2CC2)CC[C@]314 [Naltrindole hydrochloride],820 nM,IC50 ([1]; read-out: IC50): 810 nM
C=C1C(=O)O[C@H]2[C@H]1CC/C(C)=C/CC[C@@]1(C)O[C@@H]21 [Parthenolide],16400 nM,–
CCC(=O)c1ccc2c(c1)N(CCCN(C)C)c1ccccc1S2 [Propionylpromazine hydrochloride],16400 nM,–
CCCN(CCC)CCc1cccc2c1CC(=O)N2 [Ropinirole hydrochloride],18400 nM,–
